IC50 data for six compounds are collected here from PubChem BioAssay AID588641 (Sanford-Burnham Center for Chemical Genomics, 2011).

The target of this assay is alkaline phosphatase, placental type (human). The experiment in a line: PLAP enzyme inhibition by analogs, SAR follow-up, selectivity assay for mouse IAP inhibitor project, biochemical, human PLAP isozyme, set 2 (AID 588641). To be noted: purified human placental alkaline phosphatase, enzyme activity.

Active and inactive are the calls of the source. The rule behind the calls is not given here.

A word on the IC50: it is the midpoint of a concentration-inhibition curve. `COc1ccc(/C=N\NC(=O)c2cc(O)c(O)c(O)c2)cc1CN1CCN(c2ccc(F)cc2)CC1`: the IC50 is > 100 µM (inactive). Turning to `CC(C)c1ccc(/C=N/NC(=O)c2cc(O)c(O)c(O)c2)cc1`, the IC50 was > 100 µM (inactive). As for `O=C(N/N=C/c1ccc(Br)cc1F)c1cc(O)ccc1O`, the figure is > 100 µM (inactive); as for `O=C(N/N=C/c1cc(Br)ccc1F)c1ccc(O)cc1`, > 100 µM (inactive). The same measure for `COc1cccc(NC(=O)CCNS(=O)(=O)c2ccc3c(c2)oc(=O)n3C)c1`: > 100 µM (inactive); for `COc1ccccc1CNC(=O)CCNS(=O)(=O)c1ccc2[nH]c(=O)oc2c1`: > 100 µM (inactive).
